The target of experiment [1] is human A2a adenosine receptor (Homo sapiens (Human), UniProt P29274). As to the kind of experiment: A2a receptor affinity radioligand binding assay ([3H] SCH58261). Conditions: for pIC50: membranes from HEK293 or CHO cells expressing human A2a receptor. The essentials: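 Membranes from HEK293 or CHO cells expressing human A2a were preincubated 15–30 min at room temperature with compound, then incubated 60 min at room temperature with [3H]SCH58261 (diluted to 4 nM) in 50 mM Tris pH 7.4, 10 mM MgCl2, 0.005% Tween20. Bound radioactivity was collected by filtration; nonspecific binding defined with 1 μM ZM241385; IC50 from 4-parameter logistic fit.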
human A2a adenosine receptor, sequence (P29274 whole entry): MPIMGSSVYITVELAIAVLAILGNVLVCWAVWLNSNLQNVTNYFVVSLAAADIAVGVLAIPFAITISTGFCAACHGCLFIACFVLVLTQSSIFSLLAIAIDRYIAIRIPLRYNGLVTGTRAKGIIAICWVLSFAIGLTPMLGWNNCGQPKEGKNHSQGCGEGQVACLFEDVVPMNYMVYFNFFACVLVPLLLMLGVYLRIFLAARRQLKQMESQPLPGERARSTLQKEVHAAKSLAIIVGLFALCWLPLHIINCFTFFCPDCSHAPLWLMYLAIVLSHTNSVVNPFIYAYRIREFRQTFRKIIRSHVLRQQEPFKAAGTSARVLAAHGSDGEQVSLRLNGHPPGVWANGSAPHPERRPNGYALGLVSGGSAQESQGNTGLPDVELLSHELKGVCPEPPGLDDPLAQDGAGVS

Experiment [2] deals with human A2b adenosine receptor (Homo sapiens (Human), UniProt P29275). The experiment can be described thus: A2b radioligand filtration binding assay. The settings on record: for pIC50: membranes from HEK293 cells expressing human A2b receptor. The essentials: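 Membranes from HEK293 cells expressing human A2b receptor preincubated with compound 15 to 30 min at room temperature, then tritiated proprietary A2b antagonist (diluted to 14 nM before addition) added in PBS pH 7.4 for 60 min at room temperature. Bound radioactivity by filtration and scintillation; non-specific binding with 20 μM NECA; IC50 by 4-parameter logistic fit.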
human A2b adenosine receptor, sequence (P29275 whole entry): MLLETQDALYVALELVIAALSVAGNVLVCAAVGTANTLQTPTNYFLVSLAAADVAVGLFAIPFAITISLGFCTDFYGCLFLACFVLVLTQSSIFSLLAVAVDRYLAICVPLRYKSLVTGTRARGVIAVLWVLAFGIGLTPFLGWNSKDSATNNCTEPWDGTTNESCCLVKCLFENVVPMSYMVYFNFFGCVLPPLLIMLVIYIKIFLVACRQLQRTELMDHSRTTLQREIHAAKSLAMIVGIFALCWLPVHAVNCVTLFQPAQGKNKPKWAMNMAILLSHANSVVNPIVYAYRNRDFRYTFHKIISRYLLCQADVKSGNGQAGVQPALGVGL

The source of these data is patent US11312719B2, “9-substituted amino triazolo quinazoline derivatives as adenosine receptor antagonists, pharmaceutical compositions and their use” (Merck Sharp & Dohme Corp., priority 2018, dated 2022).

The structures appear in SMILES notation. pIC50: −log10 of the molar value.

For `COc1cc(F)cc2c1nc(N)n1nc(C3CC(F)CN(c4cnn(CC5(O)CCC5)c4)C3)nc21` (single isomer, unassigned) [Example 78, 1-(4-((3R,5R or 3S,5S)-3-(5-amino-9-fluoro-7-methoxy-[1,2,4]triazolo[1,5-c]quinazolin-2-yl)-5-fluoropiperidin-1-yl)-1H-pyrazol-1-yl)methyl)cyclobutan-1-ol], the pIC50 (commonly the negative decadic logarithm of the IC50, by convention in mol/L) is 9.05 in experiment [1] and 6.63 in experiment [2].

For `C[C@H]1CC[C@@H](c2nc3c4cc(F)cc(F)c4nc(N)n3n2)CN1c1cnn(CC(C)(C)O)c1` [Example 111, 1-(4-((2S,5R)-5-(5-amino-7,9-difluoro-[1,2,4]triazolo[1,5-c]quinazolin-2-yl)-2-methylpiperidin-1-yl)-1H-pyrazol-1-yl)-2-methylpropan-2-ol], the pIC50 in experiment [1] is 9.15; in experiment [2], 7.78.

Turning to `COc1cc2nc(N)n3nc([C@@H]4CCCN(c5cnn(CS(C)(=O)=O)c5C)C4)nc3c2cc1F` [Example 130, (R)-9-fluoro-8-methoxy-2-(1-(5-methyl-1-((methylsulfonyl)methyl)-1H-pyrazol-4-yl)piperidin-3-yl)-[1,2,4]triazolo[1,5-c]quinazolin-5-amine], the pIC50 in experiment [1] was 8.92; in experiment [2], 7.10.

For the compound `COc1cc2nc(N)n3nc([C@@H]4CCCN(c5cc(C)c(=O)n(C(F)F)c5)C4)nc3c2cc1F` [Example 25, (R)-5-(3-(5-amino-9-fluoro-8-methoxy-[1,2,4]triazolo[1,5-c]quinazolin-2-yl)piperidin-1-yl)-1-(difluoromethyl)-3-methylpyridin-2(1H)-one], the figures for the pIC50 in experiment [1] and in experiment [2] were 9.22 and 7.21, respectively.

For the compound `COc1cc2nc(N)n3nc(C4CCCCN(c5cnn(CC(C)(C)O)c5)C4)nc3c2cc1F` (single isomer, unassigned) [Example 60, (R or S)-1-(4-(3-(5-amino-9-fluoro-8-methoxy-[1,2,4]triazolo[1,5-c]quinazolin-2-yl)azepan-1-yl)-1H-pyrazol-1-yl)-2-methylpropan-2-ol], the results for the pIC50 in experiment [1] and in experiment [2] were 7.50 and 5.23, respectively.

As for `COc1cc2nc(N)n3nc([C@@H]4CCCN(c5ccc(OC(F)F)nc5)C4)nc3c2cc1F` [Example 22, (R)-2-(1-(6-(difluoromethoxy)pyridin-3-yl)piperidin-3-yl)-9-fluoro-8-methoxy[1,2,4]triazolo[1,5-c]quinazolin-5-amine], the pIC50 in experiment [1] was 8.07; in experiment [2], 7.56.

As for `COc1cc(F)cc2c1nc(N)n1nc([C@@H]3CC[C@H](C)N(c4cn(CC(C)(C)O)nc4C)C3)nc21` (single isomer, unassigned) [Example 115, 1-(4-((2S or 2R,5R or 5S)-5-(5-amino-9-fluoro-7-methoxy-[1,2,4]triazolo[1,5-c]quinazolin-2-yl)-2-methylpiperidin-1-yl)-3-methyl-1H-pyrazol-1-yl)-2-methylpropan-2-ol], the negative logarithm of the IC50 (pIC50) in experiment [1] was 8.54; in experiment [2] it was 6.05.

As for `COc1cc2nc(N)n3nc([C@@H]4CCCN(c5cnn(CCCC(C)O)c5)C4)nc3c2cc1F` (single isomer, unassigned) [Example 94, (S or R)-5-(4-((R)-3-(5-amino-9-fluoro-8-methoxy-[1,2,4]triazolo[1,5-c]quinazolin-2-yl)piperidin-1-yl)-1H-pyrazol-1-yl)pentan-2-ol], the figures for the negative-log IC50 (pIC50) in experiment [1] and in experiment [2] were 8.11 and 6.12, respectively.

Turning to `COc1cc(F)cc2c1nc(N)n1nc([C@@H]3C[C@@H](F)CN(c4cnn(CC(C)(C)O)c4)C3)nc21` (single isomer, unassigned) [Example 74, 1-(4-((3R,5R or 3S,5S)-3-(5-amino-9-fluoro-7-methoxy-[1,2,4]triazolo[1,5-c]quinazolin-2-yl)-5-fluoropiperidin-1-yl)-1H-pyrazol-1-yl)-2-methylpropan-2-ol], the pIC50 is 9.05 in experiment [1] and 6.81 in experiment [2].

Take `COc1cc2nc(N)n3nc(C4CN(c5cnn(CC(C)(C)O)c5C)CCS4(=O)=O)nc3c2cc1F` (single isomer, unassigned) [Example 144, (R or S)-2-(5-amino-9-fluoro-8-methoxy-[1,2,4]triazolo[1,5-c]quinazolin-2-yl)-4-(1-(2-hydroxy-2-methylpropyl)-5-methyl-1H-pyrazol-4-yl)thiomorpholine 1,1-dioxide]: in experiment [1], the “A2A binding % Inh. @ 1000 nM” value was found to be 30% Inh. @. The compound further had a pIC50 in experiment [2] of 5.15.

As for `COc1cc2nc(N)n3nc(C4(F)CCN(c5cnn(CC(C)(C)O)c5)C4)nc3c2cc1F` (single isomer, unassigned) [Example 62, (R or S)-1-(4-(3-(5-amino-9-fluoro-8-methoxy-[1,2,4]triazolo[1,5-c]quinazolin-2-yl)-3-fluoropyrrolidin-1-yl)-1H-pyrazol-1-yl)-2-methylpropan-2-ol], the pIC50 in experiment [1] was 6.84; in experiment [2], 6.42.

Consider `COc1cc(F)cc2c1nc(N)n1nc(C3CC(F)CN(c4cn(CC(C)(C)O)nc4C)C3)nc21` (single isomer, unassigned) [Example 76, 1-(4-((3R,5R or 3S,5S)-3-(5-amino-9-fluoro-7-methoxy-[1,2,4]triazolo[1,5-c]quinazolin-2-yl)-5-fluoropiperidin-1-yl)-3-methyl-1H-pyrazol-1-yl)-2-methylpropan-2-ol], for which the pIC50 in experiment [1] was 6.59. Besides, the “A2B binding % Inh. @ 10000 nM” value in experiment [2] (@ 10000 nM) came out at 34% Inh.

In the case of `COc1cc(F)cc2c1nc(N)n1nc(C3CC(F)CN(c4cn(CC(C)(C)O)nc4C)C3)nc21` (single isomer, unassigned) [Example 70, 1-(4-((3R,5S or 3S,5R)-3-(5-amino-9-fluoro-7-methoxy-[1,2,4]triazolo[1,5-c]quinazolin-2-yl)-5-fluoropiperidin-1-yl)-3-methyl-1H-pyrazol-1-yl)-2-methylpropan-2-ol], the values for the pIC50 in experiment [1] and in experiment [2] were 9.22 and 6.10, respectively.

As for `COc1cc2nc(N)n3nc(C4CN(c5cn(CC(C)(C)O)nc5C)CCS4(=O)=O)nc3c2cc1F` (single isomer, unassigned) [Example 142, (R or S)-2-(5-amino-9-fluoro-8-methoxy-[1,2,4]triazolo[1,5-c]quinazolin-2-yl)-4-(1-(2-hydroxy-2-methylpropyl)-3-methyl-1H-pyrazol-4-yl)thiomorpholine 1,1-dioxide], in experiment [1], the “A2A binding % Inh. @ 1000 nM” value is listed as 32% Inh. @. The compound also had a pIC50 in experiment [2] of 5.10.

As to `COc1cc2nc(N)n3nc([C@@H]4CCCN(c5cnn(C(C)C(C)(C)O)c5)C4)nc3c2cc1F` (single isomer, unassigned) [Example 12, (S or R)-3-(4-((R)-3-(5-amino-9-fluoro-8-methoxy-[1,2,4]triazolo [1,5-c]quinazolin-2-yl)piperidin-1-yl)-1H-pyrazol-1-yl)-2-methylbutan-2-ol], the values for the pIC50 in experiment [1] and in experiment [2] were 8.77 and 7.12, respectively.

`COc1cc2nc(N)n3nc([C@H]4CN(c5cn(CC(C)(C)O)nc5C)CCO4)nc3c2cc1F` [Example 140, (R)-1-(4-(2-(5-amino-9-fluoro-8-methoxy-[1,2,4]triazolo[1,5-c]quinazolin-2-yl)morpholino)-3-methyl-1H-pyrazol-1-yl)-2-methylpropan-2-ol]: the pIC50 was 9.10 in experiment [1] and 5.56 in experiment [2].

Take `CCn1cc([C@]2(O)CCC[C@@H](c3nc4c5cc(F)c(OC)cc5nc(N)n4n3)C2)cn1` (single isomer, unassigned) [Example 148, (1S or 1R,3R or 3S)-3-(5-amino-9-fluoro-8-methoxy-[1,2,4]triazolo[1,5-c]quinazolin-2-yl)-1-(1-ethyl-1H-pyrazol-4-yl)cyclohexan-1-ol]: the pIC50 in experiment [1] was 6.41; in experiment [2] it was 5.35.

`COc1cc2nc(N)n3nc([C@@H]4CCCN(c5cnn(CC6(C)COC6)c5)C4)nc3c2cc1F` [Example 15, (R)-9-fluoro-8-methoxy-2-(1-(1-((3-methyloxetan-3-yl)methyl)-1H-pyrazol-4-yl)piperidin-3-yl)[1,2,4] triazolo[1,5-c]quinazolin-5-amine]: the pIC50 was 7.42 in experiment [1] and 6.04 in experiment [2].

For the compound `COc1cc2nc(N)n3nc([C@@H]4CCCN(c5cnn(C6CCCC6O)c5)C4)nc3c2cc1F` (single isomer, unassigned) [Example 85, (1S or 1R,2S or 2R)-2-(4-((R)-3-(5-amino-9-fluoro-8-methoxy-[1,2,4]triazolo[1,5-c]quinazolin-2-yl)piperidin-1-yl)-1H-pyrazol-1-yl)cyclopentan-1-ol], the results for the pIC50 in experiment [1] and in experiment [2] were 8.28 and 6.72, respectively.

In the case of `COc1cc(F)cc2c1nc(N)n1nc(C3CCC(C)N(c4cnn(CC(C)(C)O)c4)C3)nc21` (single isomer, unassigned) [Example 119, 1-(4-((2S or 2R,5S or 5R)-5-(5-amino-9-fluoro-7-methoxy-[1,2,4]triazolo[1,5-c]quinazolin-2-yl)-2-methylpiperidin-1-yl)-1H-pyrazol-1-yl)-2-methylpropan-2-ol], the pIC50 was 7.29 in experiment [1] and 5.89 in experiment [2].

`CCn1cc(N2CCC[C@@H](c3nc4c5cc(F)c(OC)cc5nc(N)n4n3)C2)c(CO)n1` [Example 20, (R)-(4-(3-(5-amino-9-fluoro-8-methoxy-[1,2,4]triazolo[1,5-c]quinazolin-2-yl)piperidin-1-yl)-ethyl-1H-pyrazol-3-yl)methanol]: the figures for the pIC50 in experiment [1] and in experiment [2] were 8.24 and 6.79, respectively.
